Results as given in PMC9975698, “Hyperoside alleviates toxicity of β-amyloid via endoplasmic reticulum-mitochondrial calcium signal transduction cascade in APP/PS1 double transgenic Alzheimer's disease mice” (Redox Biology, 2023).

Key:
APP/PS1 mice [1] = experiment: Y-maze test; assay type: in vivo; conditions: HYP 20/40/80 mg/kg nasal, every 3 days, after 7 weeks
Procedure: All animal care and experimental procedures were performed in accordance with the “Institutional Animal Care and User Committee Guidelines” of the Macau University of Science and Technology. APP/PSEN1 (APP/PS1) mice (N000175) were purchased from the Nanjing Institute of Biomedical Sciences, Nanjing University, China, weighing 25 ± 5 g. The animals were housed in a temperature-controlled room with a 12 h light/dark cycle and given ad libitum food and water. Male mice were randomly divided into the following 6 experimental groups. (a) wild-type group (n = 6), (b) APP/PS1 group (n = 6), (c) HYP (20 mg/kg group) (n = 7), (d) HYP (40 mg/kg) group (n = 8), (e) HYP (80 mg/kg) group (n = 8) and (f) memantine (MEM) (10 mg/kg) positive control group (n = 8). HYP was dissolved in the solvent containing 10% DMSO, 40% PEG300 and 5% Tween-80 in PBS, and administrated via nasal injection for every 3 days with a volume of 0.5 μL/g of body weight for 8 consecutive weeks. Y-maze tests assess cognitive changes, short-term spatial working memory (by spontaneous alternation), and exploratory activity (by total number of arm choices) of mice. […] The number of total arm choices and sequence of arm choices were recorded. The percentage of alternation can be calculated as the ratio of total number of alternations / the number of arms entered x 100%. […]

APP/PS1 mice [2] = experiment: Western blot of Bcl-2, Bax and cyto-c in cortex and hippocampus lysates; assay type: in vivo; conditions: 8 weeks of HYP treatment vs APP/PS1 untreated group
Procedure: After HYP treatment, the cells were lysed with RIPA. Protein concentrations were determined by Bio-Rad protein assay (Bio-Rad Laboratories, CA, USA). After electrophoretic separation, the gels were blotted and stained with primary antibodies. Binding of antibodies was visualized with peroxidase-coupled secondary antibodies using ECL Western Blotting detection reagents (Invitrogen, Scotland, UK). Band intensities were quantified using ImageJ software. Data were obtained from three independent experiments. All animal care and experimental procedures were performed in accordance with the “Institutional Animal Care and User Committee Guidelines” of the Macau University of Science and Technology. APP/PSEN1 (APP/PS1) mice (N000175) were purchased from the Nanjing Institute of Biomedical Sciences, Nanjing University, China, weighing 25 ± 5 g. The animals were housed in a temperature-controlled room with a 12 h light/dark cycle and given ad libitum food and water. Male mice were randomly divided into the following 6 experimental groups. (a) wild-type group (n = 6), (b) APP/PS1 group (n = 6), (c) HYP (20 mg/kg group) (n = 7), (d) HYP (40 mg/kg) group (n = 8), (e) HYP (80 mg/kg) group (n = 8) and (f) memantine (MEM) (10 mg/kg) positive control group (n = 8). […]

APP/PS1 mice [3] = experiment: HE staining of hippocampus; assay type: in vivo; conditions: hippocampus CA1, CA3, DG, nasal HYP
Procedure: All animal care and experimental procedures were performed in accordance with the “Institutional Animal Care and User Committee Guidelines” of the Macau University of Science and Technology. APP/PSEN1 (APP/PS1) mice (N000175) were purchased from the Nanjing Institute of Biomedical Sciences, Nanjing University, China, weighing 25 ± 5 g. The animals were housed in a temperature-controlled room with a 12 h light/dark cycle and given ad libitum food and water. Male mice were randomly divided into the following 6 experimental groups. (a) wild-type group (n = 6), (b) APP/PS1 group (n = 6), (c) HYP (20 mg/kg group) (n = 7), (d) HYP (40 mg/kg) group (n = 8), (e) HYP (80 mg/kg) group (n = 8) and (f) memantine (MEM) (10 mg/kg) positive control group (n = 8). HYP was dissolved in the solvent containing 10% DMSO, 40% PEG300 and 5% Tween-80 in PBS, and administrated via nasal injection for every 3 days with a volume of 0.5 μL/g of body weight for 8 consecutive weeks. Pathological assessment on the cornuammonis region 1 (CA1), cornuammonis region 3 (CA3) and dentate gyrus region (DG) regions of the mouse hippocampus was done by HE staining. Brain sections were dehydrated with 70%, 80% and 90% alcohol respectively. […]

HT22 cells = experiment: Cytotoxicity (MTT) assay; assay type: cell-based
Procedure: Cytotoxicity was assessed using the MTT (5.0 mg/mL) assay. 4 × 10^3 HT22 cells per well were seeded in 96-well plates. After overnight incubation, cells were treated with Aβ aggregates (30 μM) for 48 h with or without the presence of HYP (20–80 μM). Cells were treated with DMSO as a control. Subsequently, MTT (10 μL) was added to each well for 4 h, followed by the addition of 100 μL of lysis buffer (10% SDS in 0.01 mol/L hydrochloric acid) and overnight incubation. The absorbance was measured at 570 nm the next day. The formula was calculated as a percentage of cell viability: Cell viability (%) = A (treatded) / A (control) × 100%. Data were obtained from three independent experiments in triplicate.

## O=c1c(O[C@@H]2O[C@H](CO)[C@H](O)[C@H](O)[C@H]2O)c(-c2ccc(O)c(O)c2)oc2cc(O)cc(O)c12 [HYP, Quercetin-3-O-β-D-galactopyranoside]
APP/PS1 mice [1]
  spatial working memory (Y-maze alternation): resumed to a level comparable to WT mice group
APP/PS1 mice [2]
  level of Bax, cyto-c, Bcl-2 and Bax/Bcl-2 ratio: a decrease in the level of both Bax and cyto-c, an increase in Bcl-2 expression, and a reduction in the Bax/Bcl-2 ratio
APP/PS1 mice [3]
  neuronal cell morphology (HE staining): neuronal cell morphological changes were minimal
HT22 cells; HYP 20–80 μM
  cellular toxicity of HYP alone (MTT): no obvious cellular toxicity was observed
HT22 cells; HYP 20–80 μM + aggregated Aβ 30 μM
  cell viability with aggregated Aβ co-treatment (MTT and flow cytometry): increased the cell viability in a dose-dependent manner
